Source: patent publication US20250295798A1, “LIGAND-DRUG CONJUGATE OF EXATECAN ANALOGUE, AND MEDICAL USE THEREOF” (BeiGene Switzerland GmbH, priority 2022, published 2025)
Structures can show the parent of a compound that is named as a salt. Where two headings read alike, the source gives them in different places.

Experiments:
Format in all cases: cell-based, human
MDA-MB-453 = experiment: Compounds cellular killing in MDA-MB-453; details: for EC50 / Emax: Homo sapiens; for killing activity compared with 1-B: MDA-MB-453, FIG. 1
Procedure: Seeding cells MDA-MB-453 (2E3/well) into 96-well plate (Greiner: 655090), 100 ul/well. Incubation at 37° C., 5% CO2, overnight.
Adding the fresh growth-medium containing the varying concentrations of compounds, 50 ul/well.
Incubation at 37° C., 5% CO2, 6 days.
The cell viability detected by Cell Titer-Glo (Promega, G7573). Add 70 µL/well of CellTiter-Glo® Reagent in each well.
Allow the plates to incubate at room temperature for 10 minutes to stabilize luminescent signal.
Analyze with Microplate Reader.

Calu-6 = experiment: Compounds cellular killing in Calu-6; details: Homo sapiens, Calu-6, 6 days, Cell Titer-Glo
Outline: (§1)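 A375 (1E3/well) or Calu-6 (2E3/well) cells were seeded overnight, then exposed to varying compound concentrations for 6 days at 37 °C, 5% CO2. Viability was read by CellTiter-Glo luminescence.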

A375 = experiment: Compounds cellular killing in A375; details: for Emax / EC50: Homo sapiens, A375, 6 days, Cell Titer-Glo
Outline: as §1

SMILES: CC[C@@]1(O)C(=O)OCc2c1cc1n(c2=O)Cc2c-1nc1cc(F)c(C)c3c1c2[C@@H](N(C)C)CC3 [Example 1-5, (1S,9S)-1-(dimethylamino)-9-ethyl-5-fluoro-9-hydroxy-4-methyl-1,2,3,9,12,15-hexahydro-10H,13H-benzo[de]pyrano[3′,4′:6,7]indolizino[1,2-b]quinoline-10,13-dione]
- EC50 (MDA-MB-453; MDA-MB-453, […]): 1.3 nM
- Emax (MDA-MB-453; MDA-MB-453, […]): 93.3%
- killing activity compared with 1-B (MDA-MB-453): comparable killing activity to 1-B

SMILES: CC[C@@]1(O)C(=O)OCc2c1cc1n(c2=O)Cc2c-1nc1cc(F)c(C)c3c1c2[C@@H](N1CCNCC1)CC3 [Example 1-6, (1S,9S)-9-ethyl-5-fluoro-9-hydroxy-4-methyl-1-(piperazin-1-yl)-1,2,3,9,12,15-hexahydro-10H,13H-benzo[de]pyrano[3′,4′:6,7]indolizino[1,2-b]quinoline-10,13-dione]
- EC50 (MDA-MB-453; MDA-MB-453, […]): 3.3 nM
- Emax (MDA-MB-453; MDA-MB-453, […]): 93.4%
- killing activity compared with 1-B (MDA-MB-453): less potent than 1-B

SMILES: CC[C@@]1(O)C(=O)OCc2c1cc1n(c2=O)Cc2c-1nc1cc(F)c(C)c3c1c2[C@@H](N)CC3 [Example 1-B, reference compound]
- EC50 (MDA-MB-453; MDA-MB-453, 6 days, Cell Titer-Glo, read-out: EC50): 0.9 nM
- Emax (MDA-MB-453; MDA-MB-453, 6 days, Cell Titer-Glo, read-out: Emax (%)): 99.4%
- Emax (Calu-6; Calu-6, […]): 98.4%
- Emax (A375; A-375): 100%

SMILES: CC[C@@]1(O)C(=O)OCc2c1cc1n(c2=O)Cc2c-1nc1cc(F)c(C)c3c1c2[C@@H](N1CCN(C)CC1)CC3 [Example 1-7, (1S,9S)-9-ethyl-5-fluoro-9-hydroxy-4-methyl-1-(4-methylpiperazin-1-yl)-1,2,3,9,12,15-hexahydro-10H,13H-benzo[de]pyrano[3′,4′:6,7]indolizino[1,2-b]quinoline-10,13-dione]
- EC50 (MDA-MB-453; MDA-MB-453, […]): 1.2 nM
- Emax (MDA-MB-453; MDA-MB-453, […]): 96.8%
- killing activity compared with 1-B (MDA-MB-453): comparable killing activity to 1-B

SMILES: CC[C@@]1(O)C(=O)OCc2c1cc1n(c2=O)Cc2c-1nc1cc(F)c(C)c3c1c2[C@@H](NC(=O)OCCO)CC3 [Example 2-6, 2-hydroxyethyl ((1S,9S)-9-ethyl-5-fluoro-9-hydroxy-4-methyl-10,13-dioxo-2,3,9,10,13,15-hexahydro-1H,12H-benzo[de]pyrano[3′,4′:6,7]indolizino[1,2-b]quinolin-1-yl)carbamate]
- Emax (Calu-6; Calu-6, […]): 96.9%
- EC50 (Calu-6): 0.3 nM
- EC50 (A375; A-375): 1.4 nM
- Emax (A375; A-375): 99.9%

SMILES: CC[C@@]1(O)C(=O)OCc2c1cc1n(c2=O)Cc2c-1nc1cc3c(c4c1c2C(CCCO)CC4)OCO3 (single isomer, unassigned) [Example 2-59]
- Emax (Calu-6; Calu-6, […]): 98.4%
- EC50 (Calu-6): 0.2 nM
- EC50 (A375; A-375): 0.8 nM
- Emax (A375; A-375): 100%
- potency compared with compound 1-A and 1-C (A375; Table 18, A375 and Calu-6): higher potency than compound 1-A and 1-C

SMILES: CC[C@@]1(O)C(=O)OCc2c1cc1n(c2=O)Cc2c-1nc1cc(Cl)c(C)c3c1c2[C@@H](NC(=O)C(C)(F)CO)CC3 (stereo partly drawn) [Example 2-58, N-((1S,9S)-5-chloro-9-ethyl-9-hydroxy-4-methyl-10,13-dioxo-2,3,9,10,13,15-hexahydro-1H,12H-benzo[de]pyrano[3′,4′:6,7]indolizino[1,2-b]quinolin-1-yl)-2-fluoro-3-hydroxy-2-methylpropanamide]
- EC50 (Calu-6; Calu-6, […]): 0.9 nM
- Emax (Calu-6; Calu-6, […]): 98.8%
- EC50 (A375; A-375, […]): 2.9 nM
- Emax (A375; A-375, […]): 99.9%

SMILES: CC[C@@]1(O)C(=O)OCc2c1cc1n(c2=O)Cc2c-1nc1cc(F)c(C)c3c1c2[C@@H](n1cc(CCCO)nn1)CC3 [Example 2-24, (1S,9S)-9-ethyl-5-fluoro-9-hydroxy-1-(4-(3-hydroxypropyl)-1H-1,2,3-triazol-1-yl)-4-methyl-1,2,3,9,12,15-hexahydro-10H,13H-benzo[de]pyrano[3′,4′:6,7]indolizino[1,2-b]quinoline-10,13-dione]
- EC50 (Calu-6; Calu-6, […]): 3.2 nM
- Emax (Calu-6; Calu-6, […]): 99.2%
- EC50 (A375; A-375, […]): 7.1 nM
- Emax (A375; A-375, […]): 99.9%

SMILES: CC[C@@]1(O)C(=O)OCc2c1cc1n(c2=O)Cc2c-1nc1cc(F)c(C)c3c1c2C(C(=O)N1CCC1CO)CC3 (stereo partly drawn) [Example 2-47, (9S)-9-ethyl-5-fluoro-9-hydroxy-1-(2-(hydroxymethyl)azetidine-1-carbonyl)-4-methyl-1,2,3,9,12,15-hexahydro-10H,13H-benzo[de]pyrano[3′,4′:6,7]indolizino[1,2-b]quinoline-10,13-dione]
- EC50 (Calu-6; Calu-6, […]): 1.8 nM
- Emax (Calu-6; Calu-6, […]): 99.5%
- EC50 (A375; A-375, […]): 6.7 nM
- Emax (A375; A-375, […]): 99.7%

SMILES: CC[C@@]1(O)C(=O)OCc2c1cc1n(c2=O)Cc2c-1nc1cc(F)c(C)c3c1c2C(CCCN)CC3 (stereo partly drawn) [Example 2-42, (9S)-1-(3-aminopropyl)-9-ethyl-5-fluoro-9-hydroxy-4-methyl-1,2,3,9,12,15-hexahydro-10H,13H-benzo[de]pyrano[3′,4′:6,7]indolizino[1,2-b]quinoline-10,13-dione formate]
- EC50 (Calu-6; Calu-6, […]): 2.8 nM
- Emax (Calu-6; Calu-6, […]): 99.2%
- EC50 (A375; A-375, […]): 20.7 nM
- Emax (A375; A-375, […]): 99.6%
